Experiment [1] concerns HepG2. The experiment is described as follows: Antiproliferative activity against human HepG2 cells after 96 hrs by MTT assay. Type of experiment: functional, cell-based. Particulars: HepG2, 96 h. A general note: Tetrazolium assays rely on reduction of a dye to a coloured formazan, in cell work by metabolically active cells.
The test system of experiment [2] is HUVEC. The experiment is described as follows: Antiproliferative activity against human HUVEC cells after 96 hrs by MTT assay. The format is cell-based.
Experiment [3] relates to NCI-N87. The experiment is described as follows: Antiproliferative activity against human NCI-N87 cells after 96 hrs by MTT assay. The format is functional, cell-based. Particulars: NCI-N87, 96 h.
In experiment [4] the test system is Jurkat. The experiment is described as follows: Antiproliferative activity against human Jurkat cells after 96 hrs by MTT assay. The format is functional, cell-based.
The test system of experiment [5] is HT-1080. The experiment is described as follows: Antiproliferative activity against human HT1080 cells after 96 hrs by MTT assay. The format is functional, cell-based. Particulars: HT-1080, 96 h.
The test system of experiment [6] is HeLa. The experiment is described as follows: Antiproliferative activity against human HeLa cells after 96 hrs by MTT assay. Type of experiment: functional, cell-based.
Experiment [7] deals with PANC-1. The experiment is described as follows: Antiproliferative activity against human PANC1 cells after 96 hrs by MTT assay. Type of experiment: functional, cell-based. Particulars: PANC-1, 96 h.
The test system of experiment [8] is Bel-7402. The experiment is described as follows: Antiproliferative activity against human Bel7402 cells after 96 hrs by MTT assay. Type of experiment: functional, cell-based. Particulars: Bel-7402, 96 h.
Experiment [9] relates to A-375. The experiment is described as follows: Antiproliferative activity against human A375 cells after 96 hrs by MTT assay. The format is functional, cell-based. Particulars: A-375, 96 h.

The term IC50 denotes the midpoint of a concentration-inhibition curve. On to `COc1cccc2c1C(=O)c1c(O)c3c(c(O)c1C2=O)C[C@@](O)(C(=O)CO)C[C@@H]3O[C@H]1C[C@H](N)[C@H](O)[C@H](C)O1` [DOXORUBICIN], for which the IC50 in experiment [1] is 19 nM; in experiment [2] it was 30.3 nM; in experiment [3] it was 420 nM; in experiment [4] it was 37.5 nM.
With `COc1cc([C@@H]2c3cc4c(cc3[C@@H](O[C@@H]3O[C@@H]5CO[C@@H](C)O[C@H]5[C@H](O)[C@H]3O)[C@H]3COC(=O)[C@H]23)OCO4)cc(OC)c1O` [ETOPOSIDE], half-maximal inhibition in experiment [5] (IC50) was put at 750 nM.
In experiment [2], `CO[C@@H]1[C@H](OC(=O)NC(=O)CCl)CC[C@]2(CO2)[C@H]1[C@@]1(C)O[C@@H]1CC=C(C)C` [O-CHLOROACETYLCARBAMOYLFUMAGILLOL] yielded an IC50 of 0.76 nM.
For the compound `CC(=O)O[C@H]1C(=O)[C@@]2(C)[C@H]([C@H](OC(=O)c3ccccc3)[C@]3(O)C[C@H](OC(=O)[C@H](O)[C@@H](NC(=O)c4ccccc4)c4ccccc4)C(C)=C1C3(C)C)[C@]1(OC(C)=O)CO[C@@H]1C[C@@H]2O` [PACLITAXEL], the IC50 was found to be 1.2 nM in experiment [5]; 100 nM in [6]; 5.9 nM in experiment [3]; 384 nM in experiment [7]; 578 nM in [8]; 4.6 nM in experiment [9].
